Data as given in US20080038809A1, “ISOLATED LECTIN POLYPEPTIDES CONSISTING OF TRUNCATED […] UDP-GalNAc:POLYPEPTIDE N- ACETYLGALACTOSAMINYLTRANSFERASES” (GLYCOZYM APS, priority 2002, published 2008).
“Also recorded” adds a separate entry of the source.

Columns and labels:
[1] = test system: MUC5AC secretion, HT29MTX cells; assay: MUC5AC secretion from HT29MTX cells by SDS-PAGE Western blotting of media; assay type: cell-based, human; settings: 5 mM, 14 days, LUM5-1 antibody
Protocol: FIG. 17 illustrates SDS-PAGE Western analysis of MUC5AC secretion from HT29MTX cells using polyclonal anti-MUC5AC antibody LUM5-1. In order to evaluate GalNAcβ-benzyl as an inhibitor of mucin glycosylation and secretion we used the HT-29 metotrexate (MTX) cultured colon carcinoma cells of mucin secreting phenotype. HT-29 MTX cells have a goblet cell like phenotype with constitutive production of MUC5AC. Cells were continuously grown up to 21 days in the presence of 5 mM GalNAcα-benzyl, 5 mM GalNAcβ-benzyl, 5 mM GlcNAcα-benzyl and without inhibitor. […] In striking contrast, MUC5AC was not detected in the media from cells treated with GalNAcα-benzyl (Lane 3) or GalNAcβ-benzyl (Lane 4). Results shown are from media collected at 14 days.
In order to evaluate GalNAcβ-benzyl as an inhibitor of mucin glycosylation and secretion we used the cultured colon carcinoma cells of mucin secreting phenotypes: HT-29 metotrexate (MTX) cells selected from the HT-29 cell line by culture in the presence of MTX (kind gift from G. Huet, France). The HT-29 MTX cells were selected to yield a goblet cell like phenotype with constitutive production of MUC5AC. In order to ensure proper goblet cell differentiation the HT29MTX cell line were continuously grown up to 21 days in the presence of 5 mM GalNAcα-benzyl, 5 mM GalNAcβ-benzyl, 5 mM GlcNAcα-benzyl and without inhibitor using culture conditions as described in Hennebicq-Reig et al. (Permanent exposure of mucin-secreting HT-29 cells to benzyl-N-acetyl-alpha-D-galactosaminide induces abnormal O-glycosylation of mucins and inhibits constitutive and stimulated MUC5AC secretion. Biochem J. 1998; 334:283-95). […] Furthermore the viscosity of the media from cells with and without inhibitor was evaluated using viscosity micro-measurement.

[2] = test system: MUC1 expression in CHO1d1D/MUC1F-clone2 cells; assay: MUC1 expression in cell lysates by immunoprecipitation, SDS-PAGE and western blot; assay type: cell-based, Chinese hamster (CHO 1d1D cells); human MUC1; settings: 2 mM; for MUC1 expression: cells in GalNAc or Gal and GalNAc; for SDS-PAGE migration of MUC1 (O-glycan extension): cells in Gal and GalNAc
Protocol: FIG. 12 is an SDS-PAGE Western analysis of GalNAcα-benzyl inhibition of MUC1 expression in CHO 1d1D cells stably transfected with a full coding MUC1 construct. […] Cells were further treated with 2 mM GalNAcα-benzyl (lanes 1, 4, 7, 10), 2 mM GlcNAcα-benzyl (lanes 2, 5, 8, 11) or no inhibitor (lanes 3, 6, 9, 12). Cells were washed and lysed at 24 or 48 hours and the lysates subjected to immunoprecipitation with monoclonal antibody HMFG2, which broadly recognize MUC1 glycoforms. Immunoprecipitates were analysed by SDS-PAGE and western blot using HMFG2 antibody to detect MUC1 expression. Lane M indicates molecular markers with assigned mw. Lane C includes a control MUC1 180-mer tandem repeat peptide which has been GalNAc-glycosylated with 3 moles GalNAc per repeat using GalNAc-T2. The sharp bands migrating at 100-200 kd are immunoglobulins indicated by IgG.
FIG. 13 is a SDS-PAGE Western analysis resulting from the same experiment as in FIG. 12, but using a novel monoclonal antibody, 5E5, to visualize MUC1 expression. […] Cells were further treated with 2 mM GalNAcα-benzyl (lanes 1, 4), 2 mM GlcNAcα-benzyl (lanes 2, 5) or no inhibitor (lanes 3, 6). Cells were washed and lysed at 48 hours and the lysates subjected to immunoprecipitation with monoclonal antibody HMFG2, which broadly recognize MUC1 glycoforms. Immunoprecipitates were analysed by SDS-PAGE and western blot using 5E5 antibody, which selectively recognize GalNAc-glycosylated MUC1 expression and show no reactivity with unglycosylated MUC1 peptides. Lanes M and C as described in legend to FIG. 12.
Cells were further treated with 2 mM GalNAcα-benzyl (lanes 1, 4, 7, 10), 2 mM GalNAcβ-benzyl (lanes 2, 5, 8, 11) or 2 mM GlcNAcα-benzyl (lanes 3, 6, 9, 12). Cells were washed and lysed at 36 hours and the lysates subjected to immunoprecipitation with monoclonal antibodies HMFG2 (lanes 1-6) or 5E5 (lanes 7-12). Immunoprecipitates were analysed by SDS-PAGE and western blot using HMFG2 antibody. Lanes M and C as described in legend to FIG. 7.
FIG. 15 is an SDS-PAGE Western analysis resulting from the same experiment as FIG. 14, except that expression is visualized by the monoclonal antibody 5E5. […] Cells were further treated with 2 mM GalNAcα-benzyl (lanes 1, 4, 7, 10), 2 mM GalNAcβ-benzyl (lanes 2, 5, 8, 11) or 2 mM GlcNAcα-benzyl (lanes 3, 6, 9, 12). Cells were washed and lysed at 36 hours and the lysates subjected to immunoprecipitation with monoclonal antibodies HMFG2 (lanes 1-6) or 5E5 (lanes 7-12). Immunoprecipitates were analysed by SDS-PAGE and western blot using 5E5 antibody. Lanes M and C as described in legend to FIG. 12.
We therefore investigated the effect of treatment with GalNAcα-benzyl of CHO1d1D/MUC1F-clone2 cells grown in the presence of GalNAc. CHO1d1D/MUC1F-clone2 cells were seeded in 6 well plates at a density of 0.2×10^6 per well and were grown for 6 hours in Hams F12 medium with serum until approximately 30% subconfluent. […] After 18 hours, the medium was replaced with fresh Optimem containing the sugars and benzyl derivatives as above and grown for 12-48 hours. Initially we analyzed surface expression of MUC1 by immunocytology. Cells were washed once in PBS-CMF (phosphate buffered saline Calcium and Magnesium free) after carefully removing the medium from the wells and subsequently fixed in 2 ml 3% paraformaldehyde at 25° C. for 20 min followed by three washes with PBS-CMF 3 times. Free aldehyde groups were quenched by incubating in 2 mL 50 mM Ammonium Chloride in PBS-CMF for 10 min, followed by three washes with PBS-CMF and three washes with 5 min incubations each with PBS-CMF containing 0.2% Fish Skin Gelatin (Sigma). Immunostaining of cells was performed by incubation with monoclonal antibodies for 40 min at 25° C., followed by three washes with PBS-CMF and three washes of 5 min each with PBS-CMF containing 0.2% Fish Skin Gelatin. […]

[3] = 36 hours, 5E5 blot, cells grown in GalNAc

Row | SMILES | MUC5AC in media [1] | reduction in MUC1 expression [2, 3] | MUC1 expression ([2]; 48 hours, 5E5 blot) | MUC1 expression ([2]; 48 hours, HMFG2 blot) | SDS-PAGE migration of MUC1 (O-glycan extension) ([2]; 48 hours) | reduction in MUC1 expression ([2]; 36 hours, HMFG2 blot) | SDS-PAGE migration of MUC1 (O-glycan extension) ([2]; 36 hours)
1 | CC(=O)N[C@H]1[C@@H](OCc2ccccc2)O[C@H](CO)[C@H](O)[C@@H]1O [GalNAcα-benzyl, benzyl-N-acetyl-alpha-D-galactosaminide] | diminished secretion of MUC5AC | strong inhibition of MUC1 expression | significant reduction in MUC1 expression | significant reduction in MUC1 expression | marked shift in migration to lower molecular weight migrating species | – | –
2 | CC(=O)N[C@H]1[C@H](OCc2ccccc2)O[C@H](CO)[C@H](O)[C@@H]1O [GalNAcβ-benzyl] | diminished secretion of MUC5AC | strong inhibition of MUC1 expression; also recorded: same or better reduction in MUC1 expression as treatment with GalNAcα-benzyl | – | – | – | same or better reduction in MUC1 expression as treatment with GalNAcα-benzyl | no change in the migration of MUC1
3 | CC(=O)N[C@H]1[C@@H](OCc2ccccc2)O[C@H](CO)[C@@H](O)[C@@H]1O [GlcNAcα-benzyl] | detected MUC5AC in media | – | – | no effect on MUC1 expression and O-glycosylation compared to untreated cells | – | – | –
